Assay results published in patent publication US20250032454A1, “KDM1A INHIBITORS FOR THE TREATMENT OF DISEASE” (Imago Biosciences, Inc., priority 2021, published 2025).
Where two headings read alike, the source gives them in different places.

Assays:
LSD1 = LSD1 (Homo sapiens, UniProt O60341); test: LSD1 fluorescence coupling enzyme assay (HRP/Amplex Red, H3(1-21)K4me2 peptide), 10-dose IC50; type: biochemical; conditions: 10 μM histone H3(1-21)K4me2 peptide substrate, 3-fold serial dilution from 100 μM
From the text: Assaying the inhibition of KDM1A can be determined in vitro, in cultured cells, and in animals. There are a variety of spectrophotometric methods to detect the results of demethylation of methylated lysines, viz., detecting the products of KDM1A demethylase oxidative activity on a peptide fragment of at least 18 amino acids representing the N-terminus of the histone H3 substrate that contains a monomethyl at the fourth lysine residue. Hydrogen peroxide, one product of the KDM1A demethylase reaction, reacts with horseradish peroxidase and dihydroxyphenoxazine (ADHP) to produce the fluorescent compound resorufin (excitation=530-560 nm: emission=590 nm). The KDM1A demethylase enzyme activity can be obtained from mammalian cells or tissues expressing KDM1A from an endogenous or recombinant gene and purified or assayed from a whole cell extract. These methods can be used to determine the concentration of the disclosed compounds can inhibit fifty percent of the enzyme activity (IC50).
Alternatively, the production of H2O2 during the KDM1A reaction can be detected fluometrically. In this system, the production of H2O2 is detected in the HDM assay buffer after exposure to substrate, co-factor and enzyme using ADHP (10-Acetyl-3, 7-dihydroxyphenoxazine) as a fluorogenic substrate for horse radish peroxidase (HRP). […] The florescent product is resorufin. Sensitivity can be as low as 10-15 M of target protein. The signal is read using a fluorescence microplate reader at excitation and emission wavelengths of 530-560 nm and 590 nm, respectively.
Compounds were tested in a 10-dose IC50 mode fluorescence coupling enzyme assay with 3-fold serial dilution in duplicate starting at 100 μM. The production of FAD-dependent H2O2 as a result of demethylase activity of LSD1 on 10 μM histone H3(1-21)K4me2 peptide substrate was measured by coupling with HRP and Amplex Red to yield resorufin (fluorescence measured at Ex/Em=535/590 nm on EnVision, Perkin Elmer).

MV4;11 cells = test: Cell Titer-Glo cell growth inhibition in MV4;11 cell line (Day 5 / Day 10); type: cell-based; conditions: Homo sapiens
Procedure: Cell growth inhibition against MV4;11 cells was confirmed for the synthetic compounds. The Cell Titer-Glo Luminescent Cell Viability Assay (Promega, USA) was used to determine the number of viable cells in culture based on quantitation of the ATP present, which signals the presence of metabolically active cells. This assay was run in a 96-well plate format arrayed in a 10-point dose curve, ranging from 0 to 50 µM with 4-fold dilutions for each compound. Cells are seeded on Day 0 at 3750 cells per well. At Day 5, a portion of each well is assayed for viability according to the Cell Titer-Glo protocol. Briefly, cells/plates were centrifuged at 1100×g for 5 minutes. 100 μL of media was removed from each well and replaced with 100 μL of CellTiter-Glo. The plates were shaken at room temperature for 10 minutes and measured on a luminescence plate reader. Another portion of each well from the Day 5 plate is used to seed a new 96 plate containing fresh compound and media set up in the equivalent 10-point dose curve array in order to continue the cell growth inhibition assay for another 5 days. A final timepoint is collected at Day 10 using the Cell Titer-Glo protocol. Luminescence was detected on an En Vision® Multilabel Plate Reader (Perkin Elmer, Waltham, Mass.) and IC50 determination was made using Graph Pad Prism software.

Compound	IC50 (LSD1) [nM]	also measured
N#Cc1ccc(-c2cc(NCC34CCN(CC3)CC4)nn2-c2ccc(N3CC4CC3CS4(=O)=O)cc2)cc1F (centres unmarked) [Example 121, 4-(1-(4-(2,2-Dioxido-2-thia-5-azabicyclo[2.2.1]heptan-5-yl)phenyl)-3-((quinuclidin-4-ylmethyl)amino)-1H-pyrazol-5-yl)-2-fluorobenzonitrile 2,2,2-trifluoroacetate]	< 500	–
COc1ccc(-n2nc(NC[C@@H]3CCCNC3)cc2-c2ccc(C#N)c(F)c2)cc1 [Example 3R, (R)-2-fluoro-4-(1-(4-methoxyphenyl)-3-((piperidin-3-ylmethyl)amino)-1H-pyrazol-5-yl)benzonitrile]	< 500	–
N#Cc1ccc(-c2cc(NCC3CCCNCC3)nn2-c2ccc(N3CC[S+]([O-])CC3)cc2)cc1F (centres unmarked) [Example 90, 4-(3-((Azepan-4-ylmethyl)amino)-1-(4-(1-oxidothiomorpholino)phenyl)-1H-pyrazol-5-yl)-2-fluorobenzonitrile 2,2,2-trifluoroacetate]	< 500	–
N#Cc1ccc(-c2cc(NCC3CCC[C@H](N)C3)nn2-c2ccc3nn(-c4ccncc4)cc3c2)cc1F (stereo partly drawn) [Example 75, 4-(3-((((15,3S)-3-aminocyclohexyl)methyl)amino)-1-(2-(pyridin-4-yl)-2H-indazol-5-yl)-1H-pyrazol-5-yl)-2-fluorobenzonitrile]	–	IC50 (MV4;11 cells; MV4-11, 120 h, Day 5, read-out: Cell Titer-Glo IC50 (5 d)): 500 to 1000 nM; IC50 (MV4;11 cells; MV4-11, 240 h, Day 10, read-out: Cell Titer-Glo IC50 (10 d)): < 500 nM
COC1CCN(c2ccc(-n3nc(NCC45CCN(CC4)CC5)cc3-c3ccc(C#N)c(F)c3)cc2)CC1 [Example 124, 2-Fluoro-4-(1-(4-(4-methoxypiperidin-1-yl)phenyl)-3-((quinuclidin-4-ylmethyl)amino)-1H-pyrazol-5-yl)benzo-nitrile 2,2,2-trifluoroacetate]	< 500	–
COc1ccc(-n2nc(NC[C@H]3CCCNC3)cc2-c2ccc(C#N)c(F)c2)cc1 [Example 3S, (S)-2-fluoro-4-(1-(4-methoxyphenyl)-3-((piperidin-3-ylmethyl)amino)-1H-pyrazol-5-yl)benzonitrile]	< 500	–
COc1ccc(-n2nc(NC[C@H]3CCC[C@H](CN)C3)cc2-c2ccc(C#N)c(F)c2)cc1 [Example 80, 4-(3-((((15,3S)-3-(aminomethyl)cyclohexyl)methyl)amino)-1-(4-methoxyphenyl)-1H-pyrazol-5-yl)-2-fluorobenzonitrile]	500 to 1000	–
N#Cc1ccc(-c2cc(NC[C@H]3CCC[C@H](N)C3)nn2-c2ccc(N3CCOCC3)cc2)cc1F [Example 96, 4-(3-((((1S,3S)-3-aminocyclohexyl)methyl)amino)-1-(4-morpholinophenyl)-1H-pyrazol-5-yl)-2-fluorobenzonitrile 2,2,2-trifluoroacetate]	< 500	–
CC(C)Oc1cc(N2CCS(=O)(=O)CC2)ccc1-n1nc(NCC23CCN(CC2)CC3)cc1-c1ccc(C#N)c(F)c1 [Example 122, 4-(1-(4-(1,1-Dioxidothiomorpholino)-2-isopropoxyphenyl)-3-((quinuclidin-4-ylmethyl)amino)-1H-pyrazol-5-yl)-2-fluorobenzonitrile 2,2,2-trifluoroacetate]	1000 to 10000	–

The next lines start with results.

IC50 (LSD1) [nM]	Compound	also measured
< 500	COc1cc(N2CCC(OC)CC2)ccc1-n1nc(NC[C@H]2CCC[C@H](N)C2)cc1-c1ccc(C#N)c(F)c1 [Example 114, 4-(3-((((1S,3S)-3-aminocyclohexyl)methyl)amino)-1-(2-methoxy-4-(4-methoxypiperidin-1-yl)phenyl)-1H-pyrazol-5-yl)-2-fluorobenzonitrile 2,2,2-trifluoroacetate]	–
< 500	COc1cc(N2CCN(C)C(=O)C2)ccc1-n1nc(NC[C@H]2CCC[C@H](N)C2)cc1-c1ccc(C#N)c(F)c1 [Example 117, 4-(3-((((1S,3S)-3-aminocyclohexyl)methyl)amino)-1-(2-methoxy-4-(4-methyl-3-oxopiperazin-1-yl)phenyl)-1H-pyrazol-5-yl)-2-fluorobenzonitrile]	–
< 500	COc1cc(N2CCS(=O)(=O)CC2)ccc1-n1nc(NC[C@@H]2CCCNCC2)cc1-c1ccc(C#N)c(F)c1 [Example 113, (R)-4-(3-((azepan-4-ylmethyl)amino)-1-(4-(1,1-dioxidothiomorpholino)-2-methoxyphenyl)-1H-pyrazol-5-yl)-2-fluorobenzonitrile 2,2,2-trifluoroacetate]	–
< 500	N#Cc1ccc(-c2cc(NCC3CNCCO3)nn2-c2ccc(N3CCS(=O)(=O)CC3)cc2F)cc1F (centres unmarked) [Example 108, 4-(1-(4-(1,1-dioxidothiomorpholino)-2-fluorophenyl)-3-((morpholin-2-ylmethyl)amino)-1H-pyrazol-5-yl)-2-fluorobenzonitrile 2,2,2-trifluoroacetate]	–
< 500	N#Cc1ccc(-c2cc(NC[C@H]3CCC[C@H](N)C3)nn2-c2ccc(N3CCC(C#N)CC3)cc2)cc1F [Example 103, 1-(4-(3-((((1S,3S)-3-aminocyclohexyl)methyl)amino)-5-(4-cyano-3-fluorophenyl)-1H-pyrazol-1-yl)phenyl)piperidine-4-carbonitrile 2,2,2-trifluoroacetate]	–
< 500	N#Cc1ccc(-c2cc(NC[C@H]3CCC[C@H](N)C3)nn2-c2ccc(N3CCNC(=O)C3)cc2)cc1F [Example 104, 4-(3-((((1S,3S)-3-aminocyclohexyl)methyl)amino)-1-(4-(3-oxopiperazin-1-yl)phenyl)-1H-pyrazol-5-yl)-2-fluorobenzonitrile]	–
< 500	N#Cc1ccc(-c2cc(NC[C@H]3CCC[C@H](N)C3)nn2-c2ccc(N3CCSCC3)cc2)cc1F [Example 99, 4-(3-((((1S,3S)-3-aminocyclohexyl)methyl)amino)-1-(4-thiomorpholinophenyl)-1H-pyrazol-5-yl)-2-fluorobenzonitrile]	–
< 500	N#Cc1ccc(-c2cc(NC[C@@H]3CCCNCC3)nn2-c2ccc(N3CCS(=O)(=O)CC3)cc2F)cc1F [Example 106, (R)-4-(3-((azepan-4-ylmethyl)amino)-1-(4-(1,1-dioxidothiomorpholino)-2-fluorophenyl)-1H-pyrazol-5-yl)-2-fluorobenzonitrile]	–
< 500	COc1cc(N2CCS(=O)(=O)CC2)ccc1-n1nc(NC[C@H]2CCCNCC2)cc1-c1ccc(C#N)c(F)c1 [Example 112, (S)-4-(3-((azepan-4-ylmethyl)amino)-1-(4-(1,1-dioxidothiomorpholino)-2-methoxyphenyl)-1H-pyrazol-5-yl)-2-fluorobenzonitrile 2,2,2-trifluoroacetate]	–
< 500	N#Cc1ccc(-c2cc(NCC3CCCNCC3)nn2-c2ccc(N3CCS(=O)(=O)CC3)c(F)c2)cc1F (centres unmarked) [Example 110, 4-(3-((azepan-4-ylmethyl)amino)-1-(4-(1,1-dioxidothiomorpholino)-3-fluorophenyl)-1H-pyrazol-5-yl)-2-fluorobenzonitrile 2,2,2-trifluoroacetate]	–
< 500	CC1(O)CCN(c2ccc(-n3nc(NC[C@H]4CCC[C@H](N)C4)cc3-c3ccc(C#N)c(F)c3)c(F)c2)CC1 [Example 116, 4-(3-((((1S,3S)-3-aminocyclohexyl)methyl)amino)-1-(2-fluoro-4-(4-hydroxy-4-methylpiperidin-1-yl)phenyl)-1H-pyrazol-5-yl)-2-fluorobenzonitrile 2,2,2-trifluoroacetate]	–
1000 to 10000	COc1cc(N2CCC(C)(O)CC2)ccc1-n1nc(NC[C@H]2CCC[C@H](N)C2)cc1-c1ccc(C#N)c(F)c1 [Example 115, 4-(3-((((1S,3S)-3-aminocyclohexyl)methyl)amino)-1-(4-(4-hydroxy-4-methylpiperidin-1-yl)-2-methoxyphenyl)-1H-pyrazol-5-yl)-2-fluorobenzonitrile 2,2,2-trifluoroacetate]	–
< 500	COC1CCN(c2ccc(-n3nc(NC[C@H]4CCC[C@H](N)C4)cc3-c3ccc(C#N)c(F)c3)nc2)CC1 [Example 120, 4-(3-((((1S,3S)-3-aminocyclohexyl)methyl)amino)-1-(5-(4-methoxypiperidin-1-yl)pyridin-2-yl)-1H-pyrazol-5-yl)-2-fluorobenzonitrile 2,2,2-trifluoroacetate]	–
